Measured values as given in the supplement of paper PMC11061612.

Key:
Experiment in all cases: combination Emax (second highest fraction inhibited in the dose matrix, 72 h); higher = more inhibition; extreme values may be limits of the assay
[1] = tested on: HCC2998 (Colorectal Carcinoma)
In short: (§1)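 Bliss excess equals the observed combination effect minus the expected value EA + EB − EA·EB, where EA and EB are the effects of each agent alone. Combination Emax is the second-highest inhibition within the matrix. Inhibition was scaled from CellTiter-Glo 2.0 luminescence, with 0 set by vehicle wells and 1 by blank wells, after 72 hours of two-drug dosing of cells plated in 1536-well plates.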

[2] = tested on: EJM (Plasma Cell Myeloma)
In short: as §1

[3] = tested on: EFO-21 (Ovarian Carcinoma)
In short: as §1

[4] = tested on: CADO-ES1 (Ewing's Sarcoma)
In short: as §1

[5] = tested on: SKN (Other Solid Carcinomas)
In short: as §1

[6] = tested on: HCC1500 (Breast Carcinoma)
In short: as §1

[7] = tested on: NCI-H650 (Lung Adenocarcinoma)
In short: as §1

[8] = tested on: MDA-MB-453 (Breast Carcinoma)
In short: as §1

SK-N-AS (Neuroblastoma) = tested on: SK-N-AS (Neuroblastoma)
In short: as §1

[9] = tested on: NCI-H1838 (Lung Adenocarcinoma)
In short: as §1

[10] = tested on: HCC1937 (Breast Carcinoma)
In short: as §1

[11] = tested on: ALL-SIL (T-Lymphoblastic Leukemia)
In short: as §1

[12] = tested on: ME-180 (Cervical Carcinoma)
In short: as §1

[13] = tested on: NCI-H2122 (Lung Adenocarcinoma)
In short: as §1

[14] = tested on: KOPN-8 (B-Lymphoblastic Leukemia)
In short: as §1

[15] = tested on: NCI-H1092 (Small Cell Lung Carcinoma)
In short: as §1

[16] = tested on: MOG-G-UVW (Low Grade Glioma)
In short: as §1

[17] = tested on: MOLT-4 (T-Lymphoblastic Leukemia)
In short: as §1

[18] = tested on: KGN (Other Solid Carcinomas)
In short: as §1

[19] = tested on: OACM5-1 (Esophageal Adenocarcinoma)
In short: as §1

Row | Compound | combination Emax [1] | combination Emax [2] | combination Emax [3] | combination Emax [4] | combination Emax [5] | combination Emax [6] | combination Emax [7] | combination Emax [8] | combination Emax (SK-N-AS (Neuroblastoma)) | combination Emax [9] | combination Emax [10] | combination Emax [11] | combination Emax [12] | combination Emax [13] | combination Emax [14] | combination Emax [15] | combination Emax [16] | combination Emax [17] | combination Emax [18] | combination Emax [19]
1 | COc1cccc(OCCCN)c1-c1cc(Nc2cnc(C#N)cn2)n[nH]1 [Prexasertib] + Cc1cc2ncnn2cc1Nc1ncc2c(n1)n(C1CCOCC1)c(=O)n2C [AZD7648] (first compound max 1 µM, 7x7, partner max 10 µM) | 0.954 | 0.941 | 0.656 | 0.94 | 0.425 | 0.334 | 0.653 | 0.908 | 0.984 | 0.54 | 0.537 | 0.983 | 0.411 | 0.984 | 0.966 | 0.707 | 0.904 | 1 | 0.859 | 0.643
2 | CN(C)CCCOc1ccc(-c2ccc3ncc4c(c3c2)n(C2CCOCC2)c(=O)n4C)cn1 [AZD0156] + O=C(c1cc(Cc2n[nH]c(=O)c3ccccc23)ccc1F)N1CCN(C(=O)C2CC2)CC1 [Olaparib] (first compound max 3 µM, partner max 3 µM) | 0.257 | 0.341 | 0.252 | 0.739 | 0.188 | 0.403 | 0.149 | 0.286 | 0.169 | 0.21 | 0.228 | 0.175 | 0.348 | 0.355 | 0.78 | 0.304 | 0.632 | 0.636 | 0.62 | 0.327
3 | CC1(C)CCC(CN2CCN(c3ccc(C(=O)NS(=O)(=O)c4ccc(NCC5CCOCC5)c([N+](=O)[O-])c4)c(Oc4cnc5[nH]ccc5c4)c3)CC2)=C(c2ccc(Cl)cc2)C1 [Venetoclax] + C[C@@H](Nc1cc(F)cc(F)c1)c1cc(C(=O)N(C)C)cc2c(=O)cc(N3CCOCC3)oc12 [AZD8186] (first compound max 1 µM, 7x7, partner max 3 µM) | 0.145 | 0.278 | 0.248 | 0.625 | 0.456 | 0.736 | 0.142 | 0.703 | 0.0826 | 0.0996 | 0.271 | 0.637 | 0.129 | 0.174 | 0.829 | 0.384 | 0.45 | 0.422 | 0.333 | 0.495
4 | CC1(C)CCC(CN2CCN(c3ccc(C(=O)NS(=O)(=O)c4ccc(NCC5CCOCC5)c([N+](=O)[O-])c4)c(Oc4cnc5[nH]ccc5c4)c3)CC2)=C(c2ccc(Cl)cc2)C1 [Venetoclax] + CN(C)CCCOc1ccc(-c2ccc3ncc4c(c3c2)n(C2CCOCC2)c(=O)n4C)cn1 [AZD0156] (first compound max 1 µM, 7x7, partner max 1 µM) | 0.105 | 0.159 | 0.29 | 0.692 | 0.235 | 0.864 | 0.0987 | 0.169 | 0.17 | 0.303 | 0.283 | 0.628 | 0.211 | 0.212 | 0.813 | 0.252 | 0.726 | 0.741 | 0.488 | 0.262
5 | COc1nnc2ccc(N3CCC(c4ccc(OCCN5CCN(C)C(=O)[C@H]5C)cc4)CC3)nn12 [AZD5153] + Cc1c2c(nn1C)CSCc1cc(n(C)n1)CSc1cc(c3ccccc3c1)OCCCc1c(C(=O)O)n(C)c3c-2c(Cl)ccc13 [AZD5991] (first compound max 1 µM, 7x7, partner max 1 µM) | 1 | 0.89 | 0.414 | 0.659 | 0.568 | 0.696 | 0.768 | 0.953 | 0.739 | 0.731 | 0.507 | 0.984 | 0.438 | 0.913 | 1 | 0.865 | 0.763 | 0.95 | 0.742 | 0.952
6 | CN(C)CCCOc1ccc(-c2ccc3ncc4c(c3c2)n(C2CCOCC2)c(=O)n4C)cn1 [AZD0156] + C=CCn1c(=O)c2cnc(Nc3ccc(N4CCN(C)CC4)cc3)nc2n1-c1cccc(C(C)(C)O)n1 [AZD1775] (first compound max 1 µM, partner max 1 µM) | 0.633 | 0.858 | 0.472 | 0.39 | 0.336 | 0.283 | 0.263 | 0.192 | 0.77 | 0.465 | 0.475 | 0.742 | 0.423 | 0.793 | 0.85 | 0.301 | 0.744 | 1 | 0.806 | 0.414
